Reference: the supplement of paper PMC11061612

Columns and labels:
Capivasertib = compound: C1CN(CCC1(C(=O)N[C@@H](CCO)C2=CC=C(C=C2)Cl)N)C3=NC=NC4=C3C=CN4 [Capivasertib]; conditions: max 10 µM
Summary of the method: (§1)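 After 24 hours at 37°C and 5% CO2 in 1536-well plates holding 7.5 μl of DMEM/F12 or RPMI with 10% FBS, cancer cell lines were dosed for 72 hours, with final DMSO typically 0.2%. Viability came from CellTiter-Glo 2.0 luminescence, scaled between the means of blank wells and DMSO wells. A non-linear mixed effects model fitted a two-parameter logistic curve to each dose response to give the single-agent IC50.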

AZD1775 = compound: C=CCn1c(=O)c2cnc(Nc3ccc(N4CCN(C)CC4)cc3)nc2n1-c1cccc(C(C)(C)O)n1 [AZD1775]; conditions: max 3 µM
Summary of the method: as §1

Trametinib = compound: CC(=O)Nc1cccc(-n2c(=O)n(C3CC3)c(=O)c3c(Nc4ccc(I)cc4F)n(C)c(=O)c(C)c32)c1 [Trametinib]; conditions: max 1 µM
Summary of the method: as §1

Palbociclib = compound: CC(=O)c1c(C)c2cnc(Nc3ccc(N4CCNCC4)cn3)nc2n(C2CCCC2)c1=O [Palbociclib]; conditions: max 10 µM
Summary of the method: as §1

AZD1390 = compound: CC(C)n1c(=O)n(C)c2cnc3cc(F)c(-c4ccc(OCCCN5CCCCC5)nc4)cc3c21 [AZD1390]; conditions: max 0.3 µM
Summary of the method: as §1

Venetoclax = compound: CC1(C)CCC(CN2CCN(c3ccc(C(=O)NS(=O)(=O)c4ccc(NCC5CCOCC5)c([N+](=O)[O-])c4)c(Oc4cnc5[nH]ccc5c4)c3)CC2)=C(c2ccc(Cl)cc2)C1 [Venetoclax]; conditions: max 1 µM
Summary of the method: as §1

Dasatinib = compound: CC1=C(C(=CC=C1)Cl)NC(=O)C2=CN=C(S2)NC3=CC(=NC(=N3)C)N4CCN(CC4)CCO [Dasatinib]; conditions: max 2 µM
Summary of the method: as §1

SG3199 = compound: CC1=CN2[C@@H](C1)C=NC3=CC(=C(C=C3C2=O)OC)OCCCCCOC4=C(C=C5C(=C4)N=C[C@@H]6CC(=CN6C5=O)C)OC [SG3199]; conditions: max 0.001 µM
Summary of the method: as §1

AZD2811 = compound: CCN(CCO)CCCOc1ccc2c(Nc3cc(CC(=O)Nc4cccc(F)c4)[nH]n3)ncnc2c1 [AZD2811]; conditions: max 1 µM
Summary of the method: as §1

SN-38 = compound: CCc1c2c(nc3ccc(O)cc13)-c1cc3c(c(=O)n1C2)COC(=O)[C@]3(O)CC [SN-38]; conditions: max 0.3 µM
Summary of the method: as §1

AZD0156 = compound: CN(C)CCCOc1ccc(-c2ccc3ncc4c(c3c2)n(C2CCOCC2)c(=O)n4C)cn1 [AZD0156]; conditions: max 3 µM
Summary of the method: as §1

AZD4320 = compound: CN(CC[C@H](CSC1=CC=CC=C1)NC2=C(C=C(C=C2)S(=O)(=O)NC(=O)C3=CC=C(C=C3)N4CCC(CC4)[C@H](C5=CC=CC=C5C6=CC=C(C=C6)Cl)O)S(=O)(=O)C(F)(F)F)CCO [AZD4320]; conditions: max 1 µM
Summary of the method: as §1

Alisertib = compound: COc1cc(Nc2ncc3c(n2)-c2ccc(Cl)cc2C(c2c(F)cccc2OC)=NC3)ccc1C(=O)O [Alisertib]; conditions: max 10 µM
Summary of the method: as §1

Gefitinib = compound: COc1cc2ncnc(Nc3ccc(F)c(Cl)c3)c2cc1OCCCN1CCOCC1 [Gefitinib]; conditions: max 10 µM
Summary of the method: as §1

Prexasertib = compound: COc1cccc(OCCCN)c1-c1cc(Nc2cnc(C#N)cn2)n[nH]1 [Prexasertib]; conditions: max 1 µM
Summary of the method: as §1

Doxorubicin = compound: COc1cccc2c1C(=O)c1c(O)c3c(c(O)c1C2=O)C[C@@](O)(C(=O)CO)C[C@@H]3O[C@H]1C[C@H](N)[C@H](O)[C@H](C)O1 [Doxorubicin]; conditions: max 1 µM
Summary of the method: as §1

AZD5153 = compound: COc1nnc2ccc(N3CCC(c4ccc(OCCN5CCN(C)C(=O)[C@H]5C)cc4)CC3)nn12 [AZD5153]; conditions: max 1 µM
Summary of the method: as §1

Lapatinib = compound: CS(=O)(=O)CCNCc1ccc(-c2ccc3ncnc(Nc4ccc(OCc5cccc(F)c5)c(Cl)c4)c3c2)o1 [Lapatinib]; conditions: max 10 µM
Summary of the method: as §1

AZD8186 = compound: C[C@@H](Nc1cc(F)cc(F)c1)c1cc(C(=O)N(C)C)cc2c(=O)cc(N3CCOCC3)oc12 [AZD8186]; conditions: max 3 µM
Summary of the method: as §1

Crizotinib = compound: C[C@@H](Oc1cc(-c2cnn(C3CCNCC3)c2)cnc1N)c1c(Cl)ccc(F)c1Cl [Crizotinib]; conditions: max 10 µM
Summary of the method: as §1

Savolitinib = compound: C[C@@H](c1ccc2nccn2c1)n1nnc2ncc(-c3cnn(C)c3)nc21 [Savolitinib]; conditions: max 1 µM
Summary of the method: as §1

AZD6738 = compound: C[C@@H]1COCCN1C2=NC(=NC(=C2)C3(CC3)[S@](=N)(=O)C)C4=C5C=CNC5=NC=C4 [AZD6738]; conditions: max 10 µM
Summary of the method: as §1

AZD5991 = compound: Cc1c2c(nn1C)CSCc1cc(n(C)n1)CSc1cc(c3ccccc3c1)OCCCc1c(C(=O)O)n(C)c3c-2c(Cl)ccc13 [AZD5991]; conditions: max 1 µM
Summary of the method: as §1

AZD7648 = compound: Cc1cc2ncnn2cc1Nc1ncc2c(n1)n(C1CCOCC1)c(=O)n2C [AZD7648]; conditions: max 10 µM
Summary of the method: as §1

Taselisib = compound: Cc1nc(-c2cn3c(n2)-c2ccc(-c4cnn(C(C)(C)C(N)=O)c4)cc2OCC3)n(C(C)C)n1 [Taselisib]; conditions: max 10 µM
Summary of the method: as §1

Selumetinib = compound: Cn1cnc2c(F)c(Nc3ccc(Br)cc3Cl)c(C(=O)NOCCO)cc21 [Selumetinib]; conditions: max 10 µM
Summary of the method: as §1

Olaparib = compound: O=C(c1cc(Cc2n[nH]c(=O)c3ccccc23)ccc1F)N1CCN(C(=O)C2CC2)CC1 [Olaparib]; conditions: max 10 µM
Summary of the method: as §1

| Cell Line | IC50, cell viability 72 h (Capivasertib) | IC50, cell viability 72 h (AZD1775) | IC50, cell viability 72 h (Trametinib) | IC50, cell viability 72 h (Palbociclib) | IC50, cell viability 72 h (AZD1390) | IC50, cell viability 72 h (Venetoclax) | IC50, cell viability 72 h (Dasatinib) | IC50, cell viability 72 h (SG3199) | IC50, cell viability 72 h (AZD2811) | IC50, cell viability 72 h (SN-38) | IC50, cell viability 72 h (AZD0156) | IC50, cell viability 72 h (AZD4320) | IC50, cell viability 72 h (Alisertib) | IC50, cell viability 72 h (Gefitinib) | IC50, cell viability 72 h (Prexasertib) | IC50, cell viability 72 h (Doxorubicin) | IC50, cell viability 72 h (AZD5153) | IC50, cell viability 72 h (Lapatinib) | IC50, cell viability 72 h (AZD8186) | IC50, cell viability 72 h (Crizotinib) | IC50, cell viability 72 h (Savolitinib) | IC50, cell viability 72 h (AZD6738) | IC50, cell viability 72 h (AZD5991) | IC50, cell viability 72 h (AZD7648) | IC50, cell viability 72 h (Taselisib) | IC50, cell viability 72 h (Selumetinib) | IC50, cell viability 72 h (Olaparib) |
| --- | --- | --- | --- | --- | --- | --- | --- | --- | --- | --- | --- | --- | --- | --- | --- | --- | --- | --- | --- | --- | --- | --- | --- | --- | --- | --- | --- |
| ALL-SIL (T-Lymphoblastic Leukemia) | > 10000 nM | 449 nM | > 1000 nM | > 10000 nM | > 300 nM | 257 nM | < 2 nM | > 1 nM | 4.94 nM | 1.52 nM | > 3000 nM | 9.78 nM | 44.7 nM | > 10000 nM | 5.65 nM | 146 nM | 237 nM | > 10000 nM | > 3000 nM | 244 nM | > 1000 nM | 1430 nM | 141 nM | > 10000 nM | 6050 nM | > 10000 nM | > 10000 nM |
| CADO-ES1 (Ewing's Sarcoma) | > 10000 nM | 2290 nM | > 1000 nM | > 10000 nM | > 300 nM | 60.9 nM | > 2000 nM | > 1 nM | > 1000 nM | 2.06 nM | > 3000 nM | 243 nM | 135 nM | > 10000 nM | 50 nM | 827 nM | > 1000 nM | > 10000 nM | > 3000 nM | > 10000 nM | > 1000 nM | 2890 nM | 207 nM | > 10000 nM | > 10000 nM | > 10000 nM | > 10000 nM |
| EJM (Plasma Cell Myeloma) | > 10000 nM | 202 nM | > 1000 nM | > 10000 nM | > 300 nM | > 1000 nM | > 2000 nM | > 1 nM | > 1000 nM | 25.9 nM | > 3000 nM | > 1000 nM | > 10000 nM | > 10000 nM | 8.91 nM | 837 nM | 414 nM | > 10000 nM | > 3000 nM | 6790 nM | > 1000 nM | 1650 nM | 332 nM | > 10000 nM | > 10000 nM | > 10000 nM | > 10000 nM |
